The source of these data is patent EP0861891A1, “Compounds for modulating cell negative regulations and biological applications thereof” (INSTITUT NATIONAL DE LA SANTE ET DE LA RECHERCHE MEDICALE …, priority 1996, dated 1998).

For this experiment, the target named is T1, GST-SHP-1.SH2(C) (Mus musculus, UniProt P29351).
T1 construct: recombinant fusion proteins corresponding to the isolated N- and C-SH2 domains of SHP-1; made in house; host or cells: E. coli DH5α
T1 sequence (P29351 110-213 limits assumed): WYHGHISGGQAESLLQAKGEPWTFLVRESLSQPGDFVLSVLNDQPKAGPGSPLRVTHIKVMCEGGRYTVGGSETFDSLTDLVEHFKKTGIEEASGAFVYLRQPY
Description: Surface plasmon resonance, binding of phosphorylated KIR ITIM peptides to SHP-1 C-SH2 domain. On the set-up: species or system murine. As to conditions: calculated from koff/kon. Here is the method:
Fusion proteins and surface plasmon resonance analysis. Surface plasmon resonance (SPR) measurements were performed on a BIAcore™ (Pharmacia). The GST-SHP-1.SH2(NC), GST-SHP-1.SH2(N), GST-SHP-1.SH2(C), GST-SHIP.SH2 fusion proteins generated from the murine phosphatase cDNA, were purified from DH5α lysates. Briefly, overnight culture at 37°C in LB medium containing 50 µg/ml ampicillin was diluted 1/10 in fresh medium, and incubated until the absorbance at 600 nm reaches 1-2. At that point, IPTG was added (1mM), and incubation continued for an additional 4 hours at 37°C. […] Protein purity was assessed by 12.5 % SDS-PAGE, and Coomassie blue staining. […] Then, biotinylated peptides were injected, and their binding to streptavidine-coated microchips was assessed using anti-phosphotyrosine 4G10 mAb (UBI).
The measurement of phosphorylated p58.2 peptide binding to GST-SHP-1.SH2(N) and GST-SHP-1.SH2(C) fusion proteins was at a constant 5 µl/min flow rate. […] Results are expressed as corrected resonance units (CRU) corresponding to the raw RU values subtracted from background RU value due to the injection medium. In this representative experiment, 130 RU of p58.2.1 peptide and 160 RU of p58.2.2 peptide were immobilized on microchips. koff and kon were calculated from three independent measurements using the BIAevaluation 2.0 software. Kd was calculated from koff/kon.

The structures appear in SMILES notation. Where a SMILES comes first, the peptide text is derived from it.

Usually Kd stands for a measure of binding affinity in units of concentration.

In the case of `CC[C@H](C)[C@H](NC(=O)[C@H](CC(=O)O)NC(=O)[C@@H](NC(=O)[C@@H]1CCCN1C(=O)[C@@H]1CCCN1C(=O)[C@@H](NC(=O)[C@H](CCCCN)NC(=O)[C@@H]1CCCN1C(=O)[C@H](CCCNC(=N)N)NC(=O)[C@H](CCC(N)=O)NC(=O)[C@H](CO)NC(=O)[C@@H]1CCCN1C(=O)[C@H](CCCNC(=N)N)NC(=O)CCCC[C@@H]1SC[C@@H]2NC(=O)N[C@@H]21)[C@@H](C)O)[C@@H](C)O)C(=O)N[C@H](C(=O)N[C@H](C(=O)N[C@@H](Cc1ccc(OP(=O)(O)O)cc1)C(=O)N[C@H](C(=O)N[C@@H](CCC(=O)O)C(=O)N[C@@H](CC(C)C)C(=O)N1CCC[C@H]1C(=O)N[C@@H](CC(N)=O)C(=O)N[C@@H](C)C(=O)N[C@@H](CCC(=O)O)C(=O)N1CCC[C@H]1C(=O)O)[C@@H](C)O)C(C)C)[C@@H](C)CC` [p58.2.2, RPSQRPKTPPTDIIVY333TELPNAEP] (HELM PEPTIDE1{[O=C1N[C@H]2[C@H](CS[C@H]2CCCCC(=O)[*:2])N1].R.P.S.Q.R.P.K.T.P.P.T.D.I.I.V.[O=C([C@H](Cc1ccc(OP(=O)(O)O)cc1)N[*:1])[*:2]].T.E.L.P.N.A.E.P}$$$$V2.0), the Kd is 545 nM.
